Experiments:
Assay type in all cases: cell-based
K562 = assay: Inhibition of tumor cell proliferation, CellTiter-Glo, K562; conditions: compound concentration 50 μM, 72 hours; for cell survival rate (%) at 50 µM: Homo sapiens, K562, read-out: Inhibitory activity against proliferation (cell survival rate) K562
Procedure, shortened: (§1)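 Activity is graded from survival at 50 μM: + for 60 to under 90%, ++ for over 30 to 60%, +++ for 30% or less. Survival was measured luminescently (CellTiter-Glo) 72 h after dosing, relative to untreated and blank wells; 2000-10000 cells/well, 37° C, 5% CO2.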

RPMI-8226 = assay: Inhibition of tumor cell proliferation, CellTiter-Glo, RPMI-8226; conditions: compound concentration 50 μM, 72 hours; for cell survival rate (% of control) at 50 µM: Homo sapiens, RPMI-8226, read-out: Inhibitory activity against proliferation (cell survival rate) RPMI-8226
Procedure, shortened: as §1

A549 = assay: Inhibition of tumor cell proliferation, CellTiter-Glo, A549; conditions: compound concentration 50 μM, 72 hours; for cell survival rate (% of control) at 50 µM: Homo sapiens, A549, read-out: Inhibitory activity against proliferation (cell survival rate) A549
Procedure, shortened: as §1

BxPC-3 = assay: Inhibition of tumor cell proliferation, CellTiter-Glo, BxPC-3; conditions: compound concentration 50 μM, 72 hours; for cell survival rate (%) at 50 µM: Homo sapiens, BXPC-3, read-out: Inhibitory activity against proliferation (cell survival rate) BxPC-3
Procedure, shortened: as §1

SU-DHL6 = assay: Inhibition of tumor cell proliferation, CellTiter-Glo, SU-DHL6; conditions: compound concentration 50 μM, 72 hours; for cell survival rate (% of control) at 50 µM: Homo sapiens, SU-DHL-6, read-out: Inhibitory activity against proliferation (cell survival rate) SU-DHL6
Procedure, shortened: as §1

MDA-MB-453 = assay: Inhibition of tumor cell proliferation, CellTiter-Glo, MDA-MB-453; conditions: compound concentration 50 μM, 72 hours; for cell survival rate (%) at 50 µM: Homo sapiens, MDA-MB-453, read-out: Inhibitory activity against proliferation (cell survival rate) MDA-MB-453
Procedure, shortened: as §1

SMILES	Inhibitory activity against proliferation (cell survival rate) K562 (K562)	Inhibitory activity against proliferation (cell survival rate) RPMI-8226 (RPMI-8226)	Inhibitory activity against proliferation (cell survival rate) A549 (A549)	Inhibitory activity against proliferation (cell survival rate) BxPC-3 (BxPC-3)	Inhibitory activity against proliferation (cell survival rate) SU-DHL6 (SU-DHL6)	Inhibitory activity against proliferation (cell survival rate) MDA-MB-453 (MDA-MB-453)	cell survival rate (%) at 50 µM (K562)	cell survival rate (% of control) at 50 µM (RPMI-8226)	cell survival rate (% of control) at 50 µM (A549)	cell survival rate (%) at 50 µM (BxPC-3)	cell survival rate (% of control) at 50 µM (SU-DHL6)	cell survival rate (%) at 50 µM (MDA-MB-453)
O=C1CCC(N2Cc3c(NC(=O)c4ccc(CN5CCN(CCNC=C6C(=O)CC(c7ccccc7)CC6=O)CC5)cc4)cccc3C2=O)C(=O)N1 (stereo not drawn) [Compound 92]	+ (60≤survival rate (%)<90)	+++ (survival rate (%)≤30)	+ (60≤survival rate (%)<90)	+ (60≤survival rate (%)<90)	+++ (survival rate (%)≤30)	++ (30<survival rate (%)≤60)						
O=C(/C=C\CN1CCN(CCNC=C2C(=O)CC(c3ccccc3)CC2=O)CC1)Nc1cccc2c1CN(C1CCC(=O)NC1=O)C2=O (stereo not drawn) [Compound 93]	++ (30<survival rate (%)≤60)	+++ (survival rate (%)≤30)	++ (30<survival rate (%)≤60)	+ (60≤survival rate (%)<90)	+++ (survival rate (%)≤30)	++ (30<survival rate (%)≤60)						
O=C1CCC(N2C(=O)c3cccc(NC(=O)c4ccc(CN5CCN(CCNC=C6C(=O)CC(c7ccccc7)CC6=O)CC5)cc4)c3C2=O)C(=O)N1 (stereo not drawn) [Compound 94]	+++ (survival rate (%)≤30)	+++ (survival rate (%)≤30)	+++ (survival rate (%)≤30)	+ (60≤survival rate (%)<90)	+++ (survival rate (%)≤30)	+++ (survival rate (%)≤30)						
Nc1cccc2c1CN(C1CCC(=O)N(C(=O)N3CCN(CCNC=C4C(=O)CC(c5ccccc5)CC4=O)CC3)C1=O)C2=O (stereo not drawn) [Compound 100]	+++ (survival rate (%)≤30)	+ (60≤survival rate (%)<90)	+++ (survival rate (%)≤30)	++ (30<survival rate (%)≤60)	++ (30<survival rate (%)≤60)	++ (30<survival rate (%)≤60)						
O=C1CC(c2ccccc2)CC(=O)C1=CNCCN1CCC(C(=O)N2C(=O)CCC(N3C(=O)c4ccccc4C3=O)C2=O)CC1 (stereo not drawn) [Compound 102]	+++ (survival rate (%)≤30)	+++ (survival rate (%)≤30)	+++ (survival rate (%)≤30)	+ (60≤survival rate (%)<90)	++ (30<survival rate (%)≤60)	+++ (survival rate (%)≤30)						
O=C1CC(c2ccccc2)CC(=O)C1=CNCCN1CCN(CCOC(=O)N2C(=O)CCC(N3C(=O)c4ccccc4C3=O)C2=O)CC1 (stereo not drawn) [Compound 103]	+ (60≤survival rate (%)<90)	+ (60≤survival rate (%)<90)	+++ (survival rate (%)≤30)	+ (60≤survival rate (%)<90)	+++ (survival rate (%)≤30)	+++ (survival rate (%)≤30)						
O=C1CCC(N2C(=O)c3cccc(OC(=O)OCCOCCN4CCN(CCNC=C5C(=O)CC(c6ccccc6)CC5=O)CC4)c3C2=O)C(=O)N1 (stereo not drawn) [Compound 104]	+++ (survival rate (%)≤30)	+++ (survival rate (%)≤30)	+++ (survival rate (%)≤30)	++ (30<survival rate (%)≤60)	+++ (survival rate (%)≤30)	+++ (survival rate (%)≤30)						
O=C1CCC(N2C(=O)c3cccc(OCC(=O)N4CCN(CCNC=C5C(=O)CC(c6ccccc6)CC5=O)CC4)c3C2=O)C(=O)N1 (stereo not drawn) [Compound 105]	+ (60≤survival rate (%)<90)	+ (60≤survival rate (%)<90)	+++ (survival rate (%)≤30)	++ (30<survival rate (%)≤60)	+ (60≤survival rate (%)<90)	++ (30<survival rate (%)≤60)						
O=C1CCC(N2C(=O)c3cccc(OCCN4CCN(CCNC=C5C(=O)CC(c6ccccc6)CC5=O)CC4)c3C2=O)C(=O)N1 (stereo not drawn) [Compound 106]	+ (60≤survival rate (%)<90)	+ (60≤survival rate (%)<90)	+++ (survival rate (%)≤30)	++ (30<survival rate (%)≤60)	+ (60≤survival rate (%)<90)	++ (30<survival rate (%)≤60)						
O=C1CCC(N2Cc3c(NCCN4CCN(CCNC=C5C(=O)CC(c6ccccc6)CC5=O)CC4)cccc3C2=O)C(=O)N1 (stereo not drawn) [Compound 107]	+++ (survival rate (%)≤30)	+++ (survival rate (%)≤30)	+++ (survival rate (%)≤30)	+ (60≤survival rate (%)<90)	+ (60≤survival rate (%)<90)	++ (30<survival rate (%)≤60)						
O=C1CCC(N2C(=O)c3cccc(NCCN4CCN(CCNC=C5C(=O)CC(c6ccccc6)CC5=O)CC4)c3C2=O)C(=O)N1 (stereo not drawn) [Compound 109]	++ (30<survival rate (%)≤60)	+++ (survival rate (%)≤30)	++ (30<survival rate (%)≤60)	++ (30<survival rate (%)≤60)	+ (60≤survival rate (%)<90)	+ (60≤survival rate (%)<90)						
COCCOCCOc1ccccc1C1CC(=O)C(=CNc2cccc3c2CN(C2CCC(=O)NC2=O)C3=O)C(=O)C1 (stereo not drawn) [Compound 110]	++ (30<survival rate (%)≤60)	++ (30<survival rate (%)≤60)	++ (30<survival rate (%)≤60)	++ (30<survival rate (%)≤60)	+ (60≤survival rate (%)<90)	+ (60≤survival rate (%)<90)						
O=C1CCC(N2Cc3c(NC=C4C(=O)CC(c5nccs5)CC4=O)cccc3C2=O)C(=O)N1 (stereo not drawn) [Compound 111]							≤ 30%	≤ 30%	60 to 90%	60 to 90%	≤ 30%	≤ 30%
O=C1CCC(N2Cc3c(N/C=C4\C(=O)CC(c5ccccc5)OC4=O)cccc3C2=O)C(=O)N1 (stereo not drawn) [Compound 112]							30 to 60%	30 to 60%	60 to 90%	30 to 60%	60 to 90%	30 to 60%

From patent publication US11021457B2, “Class of isoindolone-imide ring-1,3-dione-2-ene compounds, composition and use thereof” (WIGEN BIOMEDICINE TECHNOLOGY (SHANGHAI) CO., LTD., priority 2017, dated 2021)
